Entries after “also recorded” stand apart in the source; their conditions may differ.
Key:
[1] = system: granulocyte influx in the dermis of mice ears; assay: Histological examination of mouse ear skin after TDI challenge; assay type: in vivo, BALB/c-mice; conditions: mouse ear skin 24 h after TDI challenge; topical treatment
Method: (§1) One part of the collected ears was fixed in 4% formaldehyde for histological section and stained with haematoxylin-eosin with respect to dermal thickness and granulocyte accumulation. These parameters were measured in 10 fields at 40 times magnification. The remaining tissue was shock-frozen and stored in liquid nitrogen immediately after sampling. For the determination of biochemical parameters, the mice ears were homogenized under liquid nitrogen. The homogenates were taken in 200 μl RPMI 1640 medium and the protease inhibitor Pefabloc® (1 mmol) was added and the samples were mixed intensively. After centrifugation (10000 g, 10 min, 4° C.), the supernatant was collected and the protein content was determined. The samples were stored at −80° C. until the cytokines were determined. Interleukin (IL) 4, IL-6 and MIP-2 were measured in the samples by ELISA using commercially available kits according to manufacturers instructions.

interleukin 4 = assay: IL-4 in homogenized mouse ears after TDI challenge (ELISA); assay type: in vivo, BALB/c-mice; conditions: 24 h after TDI challenge, cilomilast 3%, diflorasone 0.05%; for concentration of interleukin 4 in homogenized mouse ears: topical 2 h before challenge, AWD 12-281 1%; for IL-4, mean inhibition (%) of the TDI induced synthesis: AWD 12-281 3%
Method: as §1

interleukin 6 = assay: IL-6 in homogenized mouse ears after TDI challenge (ELISA); assay type: in vivo, BALB/c-mice; conditions: 24 h after TDI challenge, cilomilast 3%, diflorasone 0.05%; for concentration of interleukin 6 in homogenized mouse ears: topical 2 h before challenge, AWD 12-281 1%; for IL-6, mean inhibition (%) of the TDI induced synthesis: AWD 12-281 3%
Method: as §1

IL-4 = conditions: Griswold et al., 1998; cited from earlier work
[2] = system: macrophage inflammatory protein 2; assay: MIP-2 in homogenized mouse ears after TDI challenge (ELISA); assay type: in vivo, BALB/c-mice; conditions: 24 h after TDI challenge, cilomilast 3%, diflorasone 0.05%; for concentration of macrophage inflammatory protein 2 in homogenized mouse ears: topical 2 h before challenge, AWD 12-281 1%; for MIP-2, mean inhibition (%) of the TDI induced synthesis: AWD 12-281 3%
Method: as §1

[3] = system: chronic obstructive pulmonary disease; conditions: Phase II/III clinical trials; Giembycz, 2001, Dyke & Montana, 2002; cited from earlier work
mice sensitized to TDI = assay: Mouse ear swelling test in mice sensitized to toluene-2,4-diisocyanate (TDI), topical application; assay type: in vivo, BALB/c-mice; conditions: for TDI-induced ear swelling: AWD 12-281 1%, cilomilast 3%, diflorasone 0.05%
Method: FIG. 6: Effect of PDE 4 inhibitors on TDI induced ear swelling in mice. […] After 1 h (grey bars) groups of mice were treated with 3% AWD 12-281, 10% cilomilast or left untreated (TDI). After 24 h, ear swelling was determined (black bars). […] Female BALB/c-mice were obtained from Charles River (Sulzfeld, Germany) at the age of 8 weeks (20 g body weight). All animals were healthy and were housed in groups of six mice per cage at 22° C. with a 12-h light/dark-cycle. Water and a standard diet (Altromin, […], Germany) were available ad libitum. After settling in for 1 week, the abdominal skin of the mice was shaved and depilated with Veet®. Subsequently, the horny layers of the abdominal skin were stripped off ten times with adhesive tapes. […] Before as well as 24 h after challenge, the ear thickness was measured with a cutimeter (model 7309, Mitutoyo, Neuss, Germany) The swelling was calculated by comparison of the values before challenge with 24 h after challenge. […] The other mice were equally distributed to the treatment groups (n=6) according to their swelling intensity, so that each group contained animals which had responded to varying extents. They had to rest until the ear thickness had reached almost a normal level after 7 days. To exclude residues of the allergen on the ears, the untreated right ears were used for the main experiment. One group of mice (n=6) was not sensitized and challenged. […] Two hours before TDI-challenge, the third and fourth group (each n=6) were treated with 20 μl (10 μl on both, the inner and outer surface) AWD 12-281 (1%=200 μg) or 20 μl cilomilast (3%=600 μg; each in acetone/DMSO 9:1) to the right ears. […] These mice were sacrificed by cervical dislocation 24 hours after TDI challenge and the ears were collected (see below). […] Five weeks after the first challenge, the animals treated with AWD 12-281 (1%) and cilomilast (3%) “therapeutically” were challenged again. Before challenge, one group was treated with AWD 12-281 (3%).

[4] = single topical application 2 h before TDI challenge, 1, 5 and 24 h after challenge
[5] = topical 1 h after TDI challenge (therapeutic), 24 h after challenge

Row | Compound | edema and influx of inflammatory cells (mainly granulocytes) [1] | concentration of interleukin 4 in homogenized mouse ears (interleukin 4) | concentration of interleukin 4 in homogenized mouse ears (interleukin 4; listed as Cilomilast) | IL-4, mean inhibition (%) of the TDI induced synthesis (interleukin 4) | concentration of interleukin 6 in homogenized mouse ears (interleukin 6) | concentration of interleukin 6 in homogenized mouse ears (interleukin 6; listed as Cilomilast) | IL-6, mean inhibition (%) of the TDI induced synthesis (interleukin 6) | IL-4 in vivo (IL-4) | concentration of macrophage inflammatory protein 2 in homogenized mouse ears [2] | concentration of macrophage inflammatory protein 2 in homogenized mouse ears ([2]; listed as Cilomilast) | MIP-2, mean inhibition (%) of the TDI induced synthesis [2] | lung function [3] | TDI-induced ear swelling (mice sensitized to TDI; [4]) | TDI-induced ear swelling (mice sensitized to TDI; [5]) | TDI-induced ear swelling (mice sensitized to TDI; topical 1 h after TDI challenge (therapeutic), 24 h after challenge, listed as Cilomilast) | TDI induced ear swelling (mice sensitized to TDI; treated 1 h after 0.5% TDI, 3% AWD 12-281, 10% cilomilast, ear swelling after 24 h (FIG. 6))
1 | COc1ccc([C@]2(C#N)CC[C@@H](C(=O)O)CC2)cc1OC1CCCC1 [cilomilast] | inhibited these inflammatory processes markedly | inhibited the increase significantly | reduced the concentration of all mediators significantly | 74% | inhibited this response significantly | reduced the concentration of all mediators significantly | 49% | inhibit IL-4 in vivo | diminished the increase of the MIP-2 concentration significantly | reduced the concentration of all mediators significantly | 66% | clinically significant increase in lung function | inhibited the TDI-induced swelling significantly at all measured times | lacks significant inhibitory effects; also recorded: failed to do so | no significant inhibition; also recorded: slight, but not significant reduction of the swelling | did not show a significant inhibitory effect
2 | CC(=O)OCC(=O)[C@@]1(OC(C)=O)[C@@H](C)C[C@H]2[C@@H]3C[C@H](F)C4=CC(=O)C=C[C@]4(C)[C@@]3(F)[C@@H](O)C[C@@]21C [diflorasone, reference compound] | inhibited these inflammatory processes markedly | reduced the concentration of all mediators significantly; also recorded: inhibited the increase significantly | – | 50% | reduced the concentration of all mediators significantly; also recorded: inhibited this response significantly | – | 52% | – | reduced the concentration of all mediators significantly; also recorded: diminished the increase of the MIP-2 concentration significantly | – | 76% | – | inhibited the TDI-induced swelling significantly at all measured times | inhibited the TDI induced ear swelling significantly | – | –
